Experimental data taken from ChEMBL document CHEMBL3286227, “Guanidinium-based derivatives: searching for new kinase inhibitors” (Eur J Med Chem, 2014).
Activity calls are given as the source filed them. The rule behind the calls is not given here.

Tests used:
[1] = system: HL-60; test: Cell cycle arrest in human HL60 cells assessed as accumulation at pre-G1 phase at 50 uM after 48 hrs by propidium iodide staining-based flow cytometry (reference value: 0.17%); format: functional
[2] = system: HL-60; test: Cell cycle arrest in human HL60 cells assessed as accumulation at Gn phase at 25 uM after 72 hrs by propidium iodide staining-based flow cytometry (reference value: 2.49 +/- 0.3%); format: functional
[3] = system: HL-60; test: Cell cycle arrest in human HL60 cells assessed as accumulation at S phase at 10 uM after 48 hrs by propidium iodide staining-based flow cytometry (reference value: 21.5 +/- 1.0%); format: functional
[4] = system: HL-60; test: Cell cycle arrest in human HL60 cells assessed as accumulation at pre-G1 phase at 50 uM after 72 hrs by propidium iodide staining-based flow cytometry (reference value: 0.14%); format: functional
[5] = system: HL-60; test: Cell cycle arrest in human HL60 cells assessed as accumulation at Gn phase at 1 uM after 72 hrs by propidium iodide staining-based flow cytometry (reference value: 2.49 +/- 0.3%); format: functional
[6] = system: HL-60; test: Cell cycle arrest in human HL60 cells assessed as accumulation at Gn phase at 50 uM after 72 hrs by propidium iodide staining-based flow cytometry (reference value: 2.49 +/- 0.3%); format: functional
[7] = system: HL-60; test: Cell cycle arrest in human HL60 cells assessed as accumulation at S phase at 50 uM after 48 hrs by propidium iodide staining-based flow cytometry (reference value: 21.5 +/- 1.0%); format: functional
[8] = system: HL-60; test: Cell cycle arrest in human HL60 cells assessed as accumulation at Gn phase at 10 uM after 72 hrs by propidium iodide staining-based flow cytometry (reference value: 2.49 +/- 0.3%); format: functional
[9] = system: HL-60; test: Induction of apoptosis in human HL60 cells assessed as nuclear fragmentation at 50 uM after 72 hrs by microscopy relative to vehicle-treated control; format: functional, cell-based
[10] = system: HL-60; test: Cell cycle arrest in human HL60 cells assessed as accumulation at S phase at 50 uM after 72 hrs by propidium iodide staining-based flow cytometry (reference value: 16.4 +/- 0.8%); format: functional
[11] = system: HL-60; test: Cell cycle arrest in human HL60 cells assessed as accumulation at S phase at 10 uM after 72 hrs by propidium iodide staining-based flow cytometry (reference value: 16.4 +/- 0.8%); format: functional
[12] = system: HL-60; test: Cell cycle arrest in human HL60 cells assessed as accumulation at G0/G1 phase at 1 uM after 72 hrs by propidium iodide staining-based flow cytometry (reference value: 65.7 +/- 0.1%); format: functional

With Cl.N=C(N)Nc1ccc(Oc2cccc(NC(=N)Nc3ccc(Cl)c(C(F)(F)F)c3)c2)cc1 the Activity [1] was 12.5%, the Activity [2] was 2.56% and the Activity [3] was 14.7%. It also gave an Activity [4] of 25.1%, an Activity [5] of 3.23% and an Activity [6] of 1.75%. The Activity [7] was 15.7%, the Activity [8] was 3.36% and the Activity [9] was “Active”. For the same compound, the Activity [10] was 14.4%, the Activity [11] was 14.1% and the Activity [12] was 61.7%.
